In assay [1] the target is Ephrin type-A receptor 7 (Homo sapiens, UniProt Q15375).
The target in assay [2] is T1, Serine/threonine-protein kinase TAO1 (Homo sapiens, UniProt Q7L7X3).
T1 sequence (Q7L7X3 whole entry): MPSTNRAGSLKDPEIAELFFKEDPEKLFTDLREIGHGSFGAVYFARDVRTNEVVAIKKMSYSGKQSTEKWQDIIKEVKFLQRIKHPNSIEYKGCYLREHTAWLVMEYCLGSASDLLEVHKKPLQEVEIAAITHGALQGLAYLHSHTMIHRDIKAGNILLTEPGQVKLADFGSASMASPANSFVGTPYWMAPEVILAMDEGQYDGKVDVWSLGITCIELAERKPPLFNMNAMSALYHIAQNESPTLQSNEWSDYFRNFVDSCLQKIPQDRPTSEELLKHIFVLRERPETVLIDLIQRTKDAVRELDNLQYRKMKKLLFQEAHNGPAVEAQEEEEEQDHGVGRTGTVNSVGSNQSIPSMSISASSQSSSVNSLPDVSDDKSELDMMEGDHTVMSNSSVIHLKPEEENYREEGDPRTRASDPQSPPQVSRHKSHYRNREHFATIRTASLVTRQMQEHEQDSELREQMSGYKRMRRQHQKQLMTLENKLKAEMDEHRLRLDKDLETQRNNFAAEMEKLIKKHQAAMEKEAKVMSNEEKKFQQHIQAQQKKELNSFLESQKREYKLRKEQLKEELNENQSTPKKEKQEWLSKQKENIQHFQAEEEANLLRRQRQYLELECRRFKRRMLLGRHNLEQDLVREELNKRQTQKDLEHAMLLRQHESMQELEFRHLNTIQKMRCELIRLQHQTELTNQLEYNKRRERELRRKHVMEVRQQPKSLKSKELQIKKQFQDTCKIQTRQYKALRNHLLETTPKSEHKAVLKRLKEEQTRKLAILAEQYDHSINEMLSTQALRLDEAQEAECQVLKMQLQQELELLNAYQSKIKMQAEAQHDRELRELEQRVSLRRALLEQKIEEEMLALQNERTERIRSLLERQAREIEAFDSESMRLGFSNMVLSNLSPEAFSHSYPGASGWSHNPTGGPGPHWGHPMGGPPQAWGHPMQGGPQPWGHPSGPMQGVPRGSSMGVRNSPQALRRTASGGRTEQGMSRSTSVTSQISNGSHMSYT

The target of assay [3] is MAP/microtubule affinity-regulating kinase 3 (Homo sapiens, UniProt P27448).
MAP/microtubule affinity-regulating kinase 3, sequence (P27448 whole entry): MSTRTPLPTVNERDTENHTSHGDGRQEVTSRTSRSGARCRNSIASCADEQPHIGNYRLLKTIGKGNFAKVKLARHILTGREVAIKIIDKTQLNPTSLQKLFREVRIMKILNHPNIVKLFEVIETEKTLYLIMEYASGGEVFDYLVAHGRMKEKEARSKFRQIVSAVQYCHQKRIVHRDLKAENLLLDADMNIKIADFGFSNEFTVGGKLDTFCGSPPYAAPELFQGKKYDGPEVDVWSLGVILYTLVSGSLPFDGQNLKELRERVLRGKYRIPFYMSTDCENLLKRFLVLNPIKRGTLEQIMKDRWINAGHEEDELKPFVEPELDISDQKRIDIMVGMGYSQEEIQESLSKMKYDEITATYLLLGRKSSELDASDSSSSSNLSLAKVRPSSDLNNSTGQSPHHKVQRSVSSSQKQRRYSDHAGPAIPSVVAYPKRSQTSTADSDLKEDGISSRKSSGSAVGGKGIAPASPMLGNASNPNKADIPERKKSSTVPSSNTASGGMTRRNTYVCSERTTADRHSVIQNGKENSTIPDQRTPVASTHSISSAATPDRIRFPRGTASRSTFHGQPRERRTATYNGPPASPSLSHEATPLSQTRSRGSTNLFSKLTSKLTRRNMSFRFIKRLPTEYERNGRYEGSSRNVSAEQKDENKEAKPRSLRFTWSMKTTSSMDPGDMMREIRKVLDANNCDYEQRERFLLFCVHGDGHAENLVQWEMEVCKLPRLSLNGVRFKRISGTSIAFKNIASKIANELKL
Assay [4] deals with Serine/threonine-protein kinase 26 (Homo sapiens, UniProt Q9P289).
Serine/threonine-protein kinase 26, sequence (Q9P289 whole entry): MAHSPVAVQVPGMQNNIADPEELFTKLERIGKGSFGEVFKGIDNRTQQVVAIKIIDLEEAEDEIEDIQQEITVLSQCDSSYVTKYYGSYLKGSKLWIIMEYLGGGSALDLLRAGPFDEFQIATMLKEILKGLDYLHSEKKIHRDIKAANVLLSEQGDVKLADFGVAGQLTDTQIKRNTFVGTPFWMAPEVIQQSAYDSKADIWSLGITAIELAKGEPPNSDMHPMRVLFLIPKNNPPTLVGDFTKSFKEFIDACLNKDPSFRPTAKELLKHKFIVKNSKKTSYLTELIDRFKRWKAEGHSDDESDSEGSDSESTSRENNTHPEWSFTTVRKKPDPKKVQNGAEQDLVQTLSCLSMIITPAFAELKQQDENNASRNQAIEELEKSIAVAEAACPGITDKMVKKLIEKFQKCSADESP
Assay [5] has as its target Dual specificity mitogen-activated protein kinase kinase 2 (Homo sapiens, UniProt P36507).
For assay [6], the target named is Insulin receptor (Homo sapiens, UniProt P06213).
Insulin receptor, sequence (P06213 28-758 limits assumed): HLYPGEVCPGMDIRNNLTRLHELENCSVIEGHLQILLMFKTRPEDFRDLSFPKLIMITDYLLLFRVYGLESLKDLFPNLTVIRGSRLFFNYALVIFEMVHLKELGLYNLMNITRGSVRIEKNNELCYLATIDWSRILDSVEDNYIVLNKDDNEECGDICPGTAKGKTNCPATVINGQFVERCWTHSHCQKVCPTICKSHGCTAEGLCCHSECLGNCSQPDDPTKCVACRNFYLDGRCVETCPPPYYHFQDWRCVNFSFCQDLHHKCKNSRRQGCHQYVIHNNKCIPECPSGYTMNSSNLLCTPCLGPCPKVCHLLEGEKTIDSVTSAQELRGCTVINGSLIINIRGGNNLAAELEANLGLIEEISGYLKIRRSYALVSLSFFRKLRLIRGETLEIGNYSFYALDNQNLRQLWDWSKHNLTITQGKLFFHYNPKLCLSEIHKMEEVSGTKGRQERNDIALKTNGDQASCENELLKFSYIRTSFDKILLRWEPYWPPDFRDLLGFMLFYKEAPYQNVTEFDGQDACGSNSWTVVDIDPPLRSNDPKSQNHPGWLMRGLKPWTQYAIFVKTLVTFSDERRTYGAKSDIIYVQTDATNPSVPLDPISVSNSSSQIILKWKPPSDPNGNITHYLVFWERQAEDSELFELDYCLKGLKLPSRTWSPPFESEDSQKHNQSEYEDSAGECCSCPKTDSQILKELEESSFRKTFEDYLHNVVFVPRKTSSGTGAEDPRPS
Insulin receptor, sequence (P06213 763-1382 limits assumed): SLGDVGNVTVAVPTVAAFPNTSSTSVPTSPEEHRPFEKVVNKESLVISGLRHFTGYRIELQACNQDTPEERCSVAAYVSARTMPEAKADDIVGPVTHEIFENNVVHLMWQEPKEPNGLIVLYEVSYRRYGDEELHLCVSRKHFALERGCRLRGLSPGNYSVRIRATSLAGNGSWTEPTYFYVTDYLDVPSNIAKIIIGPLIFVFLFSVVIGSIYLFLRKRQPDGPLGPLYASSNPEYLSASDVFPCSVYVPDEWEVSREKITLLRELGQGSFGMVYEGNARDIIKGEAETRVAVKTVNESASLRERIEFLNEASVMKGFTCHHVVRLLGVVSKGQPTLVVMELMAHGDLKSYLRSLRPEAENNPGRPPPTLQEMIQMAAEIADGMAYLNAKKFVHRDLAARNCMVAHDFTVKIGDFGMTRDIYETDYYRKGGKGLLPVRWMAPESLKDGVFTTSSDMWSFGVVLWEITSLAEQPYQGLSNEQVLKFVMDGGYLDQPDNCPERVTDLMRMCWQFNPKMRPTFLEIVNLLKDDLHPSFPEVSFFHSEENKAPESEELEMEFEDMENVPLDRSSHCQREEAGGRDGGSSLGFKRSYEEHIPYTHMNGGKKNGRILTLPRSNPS
The target of assay [7] is Ephrin type-A receptor 2 (Homo sapiens, UniProt P29317).
Ephrin type-A receptor 2, sequence (P29317 whole entry): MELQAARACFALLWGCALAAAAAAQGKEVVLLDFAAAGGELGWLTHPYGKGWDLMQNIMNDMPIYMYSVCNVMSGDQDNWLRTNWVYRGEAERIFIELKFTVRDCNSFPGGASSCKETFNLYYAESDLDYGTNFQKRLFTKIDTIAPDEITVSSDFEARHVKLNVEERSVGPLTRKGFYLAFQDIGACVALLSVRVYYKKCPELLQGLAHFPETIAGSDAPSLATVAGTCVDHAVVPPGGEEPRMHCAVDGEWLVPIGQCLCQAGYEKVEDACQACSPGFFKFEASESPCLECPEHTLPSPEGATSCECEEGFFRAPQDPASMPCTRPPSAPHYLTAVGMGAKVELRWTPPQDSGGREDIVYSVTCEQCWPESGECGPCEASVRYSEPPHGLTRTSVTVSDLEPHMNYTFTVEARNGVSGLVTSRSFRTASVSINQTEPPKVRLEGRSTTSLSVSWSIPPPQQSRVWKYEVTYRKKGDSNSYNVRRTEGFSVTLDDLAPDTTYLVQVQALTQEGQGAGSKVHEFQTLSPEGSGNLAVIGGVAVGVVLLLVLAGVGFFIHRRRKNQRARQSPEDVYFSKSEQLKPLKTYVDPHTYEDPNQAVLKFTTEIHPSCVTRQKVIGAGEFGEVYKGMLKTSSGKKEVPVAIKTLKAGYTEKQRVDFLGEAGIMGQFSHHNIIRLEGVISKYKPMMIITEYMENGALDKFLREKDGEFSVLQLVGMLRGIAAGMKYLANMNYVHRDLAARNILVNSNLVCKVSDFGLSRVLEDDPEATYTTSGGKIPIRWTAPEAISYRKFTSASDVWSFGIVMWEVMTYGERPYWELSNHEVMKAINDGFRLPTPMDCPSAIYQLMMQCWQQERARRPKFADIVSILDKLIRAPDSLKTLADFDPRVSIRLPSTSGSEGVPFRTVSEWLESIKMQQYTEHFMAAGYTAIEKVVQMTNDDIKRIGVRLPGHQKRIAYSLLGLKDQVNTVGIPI
Assay [8] addresses T2, NUAK family SNF1-like kinase 2 (Homo sapiens, UniProt Q9H093).
T2 sequence (Q9H093 whole entry): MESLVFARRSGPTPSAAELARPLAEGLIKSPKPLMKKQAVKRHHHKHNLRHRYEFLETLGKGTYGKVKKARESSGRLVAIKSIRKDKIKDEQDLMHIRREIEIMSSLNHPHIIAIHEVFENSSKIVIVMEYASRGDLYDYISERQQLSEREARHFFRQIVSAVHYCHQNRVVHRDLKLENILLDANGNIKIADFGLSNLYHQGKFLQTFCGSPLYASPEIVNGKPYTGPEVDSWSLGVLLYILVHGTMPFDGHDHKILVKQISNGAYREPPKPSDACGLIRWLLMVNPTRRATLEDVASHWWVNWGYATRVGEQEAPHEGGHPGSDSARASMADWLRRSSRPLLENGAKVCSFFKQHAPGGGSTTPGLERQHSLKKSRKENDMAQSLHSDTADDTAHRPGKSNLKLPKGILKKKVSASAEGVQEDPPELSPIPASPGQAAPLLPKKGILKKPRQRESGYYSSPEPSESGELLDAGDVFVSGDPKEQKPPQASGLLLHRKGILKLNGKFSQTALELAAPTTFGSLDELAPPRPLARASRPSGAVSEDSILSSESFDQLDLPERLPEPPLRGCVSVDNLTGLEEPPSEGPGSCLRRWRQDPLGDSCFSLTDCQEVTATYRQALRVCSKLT

Assay [9] addresses T3, RNA cytidine acetyltransferase (Homo sapiens, UniProt Q9H0A0).
T3 sequence (Q9H0A0 whole entry): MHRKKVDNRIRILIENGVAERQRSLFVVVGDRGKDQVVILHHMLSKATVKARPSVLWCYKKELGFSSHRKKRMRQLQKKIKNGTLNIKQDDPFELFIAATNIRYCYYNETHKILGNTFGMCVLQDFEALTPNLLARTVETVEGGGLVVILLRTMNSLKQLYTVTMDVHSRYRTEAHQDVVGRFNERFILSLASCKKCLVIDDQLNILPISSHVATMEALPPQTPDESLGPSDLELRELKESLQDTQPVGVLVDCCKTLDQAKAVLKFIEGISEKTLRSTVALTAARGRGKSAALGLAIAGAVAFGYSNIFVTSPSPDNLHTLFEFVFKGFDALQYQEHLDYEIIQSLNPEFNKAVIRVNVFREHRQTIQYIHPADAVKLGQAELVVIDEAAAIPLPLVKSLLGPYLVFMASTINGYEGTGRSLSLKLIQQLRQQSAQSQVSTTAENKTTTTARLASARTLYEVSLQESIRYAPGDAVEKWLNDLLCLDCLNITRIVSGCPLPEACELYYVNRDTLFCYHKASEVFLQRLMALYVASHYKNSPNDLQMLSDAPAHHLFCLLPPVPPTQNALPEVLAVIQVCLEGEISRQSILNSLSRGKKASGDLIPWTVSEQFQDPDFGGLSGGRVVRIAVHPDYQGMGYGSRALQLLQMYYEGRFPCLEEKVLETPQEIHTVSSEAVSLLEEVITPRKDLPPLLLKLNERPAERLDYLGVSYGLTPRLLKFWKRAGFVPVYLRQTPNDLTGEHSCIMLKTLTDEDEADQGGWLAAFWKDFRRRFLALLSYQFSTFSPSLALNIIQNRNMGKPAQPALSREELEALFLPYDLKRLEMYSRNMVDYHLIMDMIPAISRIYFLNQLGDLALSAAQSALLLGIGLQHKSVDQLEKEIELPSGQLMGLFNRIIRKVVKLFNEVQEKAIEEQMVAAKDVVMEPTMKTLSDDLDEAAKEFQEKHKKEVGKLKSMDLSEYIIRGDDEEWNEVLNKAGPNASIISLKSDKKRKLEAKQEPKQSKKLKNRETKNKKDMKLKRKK

Assay [10] deals with Chromodomain-helicase-DNA-binding protein 4 (Homo sapiens, UniProt Q14839).

The source made the active and inactive calls. Cut-off read from the data, not from the text of the source, for most assays here: actives have a measured Kd and inactives only a lower limit.
Note: in the data inactive means no Kd found up to 30 µM.

Ephrin type-A receptor 7, sequence (Q15375 whole entry): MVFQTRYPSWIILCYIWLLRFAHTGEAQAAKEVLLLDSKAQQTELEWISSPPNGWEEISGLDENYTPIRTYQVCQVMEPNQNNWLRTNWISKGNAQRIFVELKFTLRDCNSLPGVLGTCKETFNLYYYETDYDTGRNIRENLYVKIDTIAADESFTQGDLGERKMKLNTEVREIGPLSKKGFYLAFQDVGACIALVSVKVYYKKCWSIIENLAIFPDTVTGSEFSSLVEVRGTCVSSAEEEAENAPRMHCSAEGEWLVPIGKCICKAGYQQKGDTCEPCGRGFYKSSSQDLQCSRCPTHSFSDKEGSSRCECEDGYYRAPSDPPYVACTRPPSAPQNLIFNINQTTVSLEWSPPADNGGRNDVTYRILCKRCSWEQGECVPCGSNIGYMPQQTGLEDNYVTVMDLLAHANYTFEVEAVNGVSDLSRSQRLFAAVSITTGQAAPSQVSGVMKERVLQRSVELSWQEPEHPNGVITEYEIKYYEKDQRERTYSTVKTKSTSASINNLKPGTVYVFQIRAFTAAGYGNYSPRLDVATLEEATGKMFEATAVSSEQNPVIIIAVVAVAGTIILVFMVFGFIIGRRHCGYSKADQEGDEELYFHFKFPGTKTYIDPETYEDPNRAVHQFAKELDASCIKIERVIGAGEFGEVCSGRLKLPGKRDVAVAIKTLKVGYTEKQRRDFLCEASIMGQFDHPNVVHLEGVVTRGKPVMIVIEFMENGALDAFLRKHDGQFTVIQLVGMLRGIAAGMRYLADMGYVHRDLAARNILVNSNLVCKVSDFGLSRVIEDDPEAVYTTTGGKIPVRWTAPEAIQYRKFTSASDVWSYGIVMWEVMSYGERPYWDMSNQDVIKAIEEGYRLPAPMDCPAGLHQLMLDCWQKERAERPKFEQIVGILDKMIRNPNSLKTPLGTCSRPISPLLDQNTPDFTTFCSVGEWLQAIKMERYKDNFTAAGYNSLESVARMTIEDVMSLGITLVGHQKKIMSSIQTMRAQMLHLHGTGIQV
Dual specificity mitogen-activated protein kinase kinase 2, sequence (P36507 whole entry): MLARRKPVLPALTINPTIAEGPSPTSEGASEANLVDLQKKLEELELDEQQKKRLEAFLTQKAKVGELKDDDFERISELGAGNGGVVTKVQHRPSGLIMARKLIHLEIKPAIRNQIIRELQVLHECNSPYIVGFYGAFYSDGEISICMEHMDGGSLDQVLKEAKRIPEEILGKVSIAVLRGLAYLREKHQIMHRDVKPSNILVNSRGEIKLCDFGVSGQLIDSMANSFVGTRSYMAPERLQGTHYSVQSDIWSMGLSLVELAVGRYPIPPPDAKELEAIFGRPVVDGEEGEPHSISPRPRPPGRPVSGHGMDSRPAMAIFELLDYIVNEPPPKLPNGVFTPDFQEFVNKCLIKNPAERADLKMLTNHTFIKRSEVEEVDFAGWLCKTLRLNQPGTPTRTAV

On to `C[C@@H](Oc1cc(C(=O)Nc2ccc(C(=O)N3CCN(C)CC3)cc2)nnc1N)c1c(Cl)ccc(F)c1Cl`, for which the Kd in [1], in assay [2], in assay [3], in assay [4], in [5] and in assay [6] was > 30 µM (inactive) throughout. Besides, the Kd in [7], in assay [8], in assay [9] and in assay [10] was > 30 µM (inactive) each time.

With `CC(=O)c1cnc2ccc(-c3cc(Cl)c(O)c(Cl)c3)nc2c1N[C@H]1CC[C@H](CN(C)C)CC1`, the Kd in [1] was 0.016 µM; in assay [2] it was 0.017 µM (active); in [3], > 30 µM (inactive); in assay [4], > 30 µM (inactive); in assay [5], > 30 µM (inactive); in assay [6], > 30 µM (inactive). Further, the Kd in [7] is 0.11 µM (active); in assay [8], > 30 µM (inactive); in assay [9] it was > 30 µM (inactive); in [10] it was > 30 µM (inactive).

In the case of `C=CC(=O)N1CCC[C@H](n2c(=O)n(-c3ccc(Oc4ccccc4)cc3)c3c(N)ncnc32)C1`, the Kd in assay [1], in assay [2], in assay [3], in assay [4], in assay [5] and in assay [6] was > 30 µM (inactive) each time. Also, the Kd in assay [7], in [8] and in [9] was > 30 µM (inactive) throughout.

As for `Cc1nc2cc(-c3nn(C(C)C)c4ncnc(N)c34)ccc2o1`, the Kd is > 30 µM (inactive) in assay [1]; 1.09 µM (active) in [2]; > 30 µM (inactive) in assay [3]; 2.19 µM (active) in [4]; 1.92 µM (active) in [5]; > 30 µM (inactive) in assay [6]. Besides, the Kd in assay [7], in assay [8], in assay [9] and in [10] was > 30 µM (inactive) throughout.

As for `COCc1c(-c2ccc(NC(=O)Nc3cc(C(F)(F)F)ccc3F)c(F)c2)c2c(N)ncnn2c1CN1CCOCC1`, the Kd in [1], in assay [2], in assay [3], in [4], in assay [5] and in assay [6] was > 30 µM (inactive) throughout. Also, the Kd in assay [7], in assay [8], in assay [9] and in assay [10] was > 30 µM (inactive) each time.

As for `Nc1ncnc2c1c(-c1cccc(OCc3ccccc3)c1)cn2[C@H]1C[C@@H](CN2CCC2)C1` [AEW-541], the Kd is > 30 µM (inactive) in assay [1]; > 30 µM (inactive) in assay [2]; > 30 µM (inactive) in [3]; > 30 µM (inactive) in [4]; 5.76 µM (active) in assay [5]; 4.04 µM (active) in assay [6]. The Kd in [7], in assay [8] and in assay [9] was > 30 µM (inactive) each time.

On to `Cc1nc(NC(=O)N2CCC[C@H]2C(N)=O)sc1-c1ccnc(C(C)(C)C(F)(F)F)c1` [ALPELISIB], for which the Kd in [1], in [2], in assay [3], in [4], in [5] and in assay [6] was > 30 µM (inactive) throughout. The Kd in assay [7], in [8], in assay [9] and in [10] was > 30 µM (inactive) in each case.

In the case of `COc1cc2ncnc(Oc3cccc(NC(=O)Nc4cc(C(C)(C)C(F)(F)F)on4)c3)c2cc1OC` [CEP-32496], the Kd in [1], in [2], in [3], in assay [4], in assay [5] and in assay [8] was > 30 µM (inactive) throughout. For the same molecule, the Kd in [9] and in assay [10] was > 30 µM (inactive) each time.

In the case of `Cc1cc(Nc2ncc(Cl)c(Nc3ccccc3S(=O)(=O)C(C)C)n2)c(OC(C)C)cc1C1CCNCC1` [CERITINIB], the Kd in assay [1], in [2], in assay [3], in [4], in [5] and in [7] was > 30 µM (inactive) throughout. For the same molecule, the Kd in assay [8], in [9] and in [10] was > 30 µM (inactive) each time.

Regarding `CCOc1cc2ncc(C#N)c(Nc3ccc(F)c(Cl)c3)c2cc1NC(=O)/C=C/CN(C)C` [PELITINIB], the Kd in [1], in [2], in assay [3], in [4], in assay [6] and in [7] was > 30 µM (inactive) throughout. Besides, the Kd in assay [8], in [9] and in assay [10] was > 30 µM (inactive) in each case.

As to `C[C@@H](NC(=O)c1ncnc(N)c1Cl)c1ncc(C(=O)Nc2cc(C(F)(F)F)c(Cl)cn2)s1` [TOVORAFENIB], the Kd in assay [1], in assay [2], in assay [3], in assay [4], in assay [5] and in [6] was > 30 µM (inactive) each time. In addition, the figures for the dissociation constant (Kd) in [7], in assay [9] and in assay [10] were 0.807 µM (active), > 30 µM (inactive) and > 30 µM (inactive), respectively.

What is called Kd is the constant that tells how readily two partners part at equilibrium.
